Data set [1] concerns Hepatotoxicity. Put plainly: Literature-mined compound from Fourches et al multi-species drug-induced liver injury (DILI) dataset, effect in humans. As to conditions: human.
Data set [2] has as its system Hepatotoxicity. Put plainly: Literature-mined compound from Fourches et al multi-species drug-induced liver injury (DILI) dataset, effect in rodents. As to conditions: rodentia.
Data set [3] deals with Hepatotoxicity. Put plainly: Literature-mined compound from Fourches et al multi-species drug-induced liver injury (DILI) dataset, effect in non-rodents.

For `CCC(=O)O[C@](Cc1ccccc1)(c1ccccc1)[C@H](C)CN(C)C` [PROPOXYPHENE], the results for the Hepatotoxicity result with Hepatotoxicity [1], with Hepatotoxicity [2] and in the data set with Hepatotoxicity [3] were “drug-induced liver injury reported”, “drug-induced liver injury reported” and “no drug-induced liver injury reported”, respectively.

Regarding `CC(C)NCC(O)COc1cccc2ccccc12` (stereo not drawn) [PROPRANOLOL], the Hepatotoxicity result in the data set on Hepatotoxicity [1], in the data set with Hepatotoxicity [2] and with Hepatotoxicity [3] was “drug-induced liver injury reported” throughout.

In the case of `CCCc1cc(=O)[nH]c(=S)[nH]1` [PROPYLTHIOURACIL], the results for the Hepatotoxicity result with Hepatotoxicity [1] (Liver), in the data set with Hepatotoxicity [2] (Liver) and with Hepatotoxicity [3] (Liver) were “drug-induced liver injury reported”, “drug-induced liver injury reported” and “no drug-induced liver injury reported”, respectively.

Consider `CCCc1cc(C(N)=S)ccn1` [PROTIONAMIDE], for which the Hepatotoxicity entry is “drug-induced liver injury reported” in the data set with Hepatotoxicity [1], “no drug-induced liver injury reported” in the data set on Hepatotoxicity [2] and “no drug-induced liver injury reported” in the data set on Hepatotoxicity [3].

In the case of `NC(=O)c1cnccn1` [PYRAZINAMIDE], the Hepatotoxicity result in the data set with Hepatotoxicity [1] is listed as “drug-induced liver injury reported”; in the data set with Hepatotoxicity [2], “drug-induced liver injury reported”; in the data set with Hepatotoxicity [3] it was “no drug-induced liver injury reported”.

As for `CNC(=O)OCc1cccc(COC(=O)NC)n1` [PYRICARBATE], the Hepatotoxicity result in the data set with Hepatotoxicity [1] is “drug-induced liver injury reported”; in the data set with Hepatotoxicity [2], “drug-induced liver injury reported”; with Hepatotoxicity [3], “no drug-induced liver injury reported”.

Turning to `Cc1ncc(COP(=O)(O)O)c(C=O)c1O` [PYRIDOXAL PHOSPHATE ANHYDROUS], the Hepatotoxicity entry in the data set on Hepatotoxicity [1] is “no drug-induced liver injury reported”; in the data set with Hepatotoxicity [2], “drug-induced liver injury reported”; in the data set with Hepatotoxicity [3], “no drug-induced liver injury reported”.

As for `CCc1nc(N)nc(N)c1-c1ccc(Cl)cc1` [PYRIMETHAMINE], the Hepatotoxicity entry in the data set on Hepatotoxicity [1] is given as “drug-induced liver injury reported”; with Hepatotoxicity [2] it was “drug-induced liver injury reported”; in the data set on Hepatotoxicity [3], “no drug-induced liver injury reported”.

Consider `CCN(CC)CCCC(C)Nc1c2ccc(Cl)cc2nc2ccc(OC)cc12` (stereo not drawn) [QUINACRINE], for which the Hepatotoxicity result in the data set on Hepatotoxicity [1], in the data set with Hepatotoxicity [2] and in the data set with Hepatotoxicity [3] was “drug-induced liver injury reported” each time.

As to `C#C[C@]1(O)CC[C@H]2[C@@H]3CCc4cc(OC5CCCC5)ccc4[C@H]3CC[C@@]21C` [QUINESTROL], the values for the Hepatotoxicity result in the data set on Hepatotoxicity [1], in the data set on Hepatotoxicity [2] and in the data set on Hepatotoxicity [3] were “no drug-induced liver injury reported”, “drug-induced liver injury reported” and “no drug-induced liver injury reported”, respectively.

In the case of `C=C[C@H]1C[N@@]2CC[C@H]1C[C@@H]2[C@@H](O)c1ccnc2ccc(OC)cc12` [QUINIDINE], the Hepatotoxicity entry was “drug-induced liver injury reported” in the data set on Hepatotoxicity [1], “drug-induced liver injury reported” in the data set on Hepatotoxicity [2] and “no drug-induced liver injury reported” in the data set with Hepatotoxicity [3].

As to `CCO[C@@H](Cc1ccc(OCCN2c3ccccc3Oc3ccccc32)cc1)C(=O)O` [RAGAGLITAZAR], the Hepatotoxicity result with Hepatotoxicity [1] is listed as “no drug-induced liver injury reported”; with Hepatotoxicity [2], “drug-induced liver injury reported”; in the data set with Hepatotoxicity [3], “no drug-induced liver injury reported”.

In the case of `Cc1nc2ccc(CN(C)c3ccc(C(=O)N[C@@H](CCC(=O)O)C(=O)O)s3)cc2c(=O)[nH]1` [RALTITREXED], the Hepatotoxicity entry in the data set on Hepatotoxicity [1] is reported as “drug-induced liver injury reported”; with Hepatotoxicity [2], “no drug-induced liver injury reported”; in the data set on Hepatotoxicity [3], “no drug-induced liver injury reported”.

Regarding `CNC(=C[N+](=O)[O-])NCCSCc1ccc(CN(C)C)o1` [RANITIDINE], the Hepatotoxicity result in the data set on Hepatotoxicity [1], with Hepatotoxicity [2] and with Hepatotoxicity [3] was “drug-induced liver injury reported” each time.

On to `O=C(NC(Cc1cc(=O)[nH]c2ccccc12)C(=O)O)c1ccc(Cl)cc1` (stereo not drawn) [REBAMIPIDE], for which the Hepatotoxicity result in the data set on Hepatotoxicity [1] is on record as “no drug-induced liver injury reported”; in the data set on Hepatotoxicity [2], “drug-induced liver injury reported”; in the data set with Hepatotoxicity [3], “no drug-induced liver injury reported”.

In the case of `Cc1oc(-c2ccccc2)nc1CCOc1ccc(CC2C(=O)NOC2=O)cc1` (stereo not drawn) [REGLITAZAR], the Hepatotoxicity entry in the data set on Hepatotoxicity [1] is listed as “no drug-induced liver injury reported”; with Hepatotoxicity [2] it was “drug-induced liver injury reported”; in the data set on Hepatotoxicity [3], “no drug-induced liver injury reported”.

On to `COC(=O)[C@H]1[C@H]2C[C@@H]3c4[nH]c5cc(OC)ccc5c4CCN3C[C@H]2C[C@@H](OC(=O)c2cc(OC)c(OC)c(OC)c2)[C@@H]1OC` [RESERPINE], for which the Hepatotoxicity entry in the data set on Hepatotoxicity [1] was “no drug-induced liver injury reported”; in the data set with Hepatotoxicity [2], “drug-induced liver injury reported”; with Hepatotoxicity [3], “no drug-induced liver injury reported”.

As to `CC1=C(/C=C/C(C)=C/C=C/C(C)=C/CO)C(C)(C)CCC1` [RETINOL], the Hepatotoxicity result in the data set on Hepatotoxicity [1] (Liver), in the data set on Hepatotoxicity [2] (Liver) and with Hepatotoxicity [3] (Liver) was “drug-induced liver injury reported” in each case.

Regarding `NC(=O)c1ncn([C@@H]2O[C@H](CO)[C@@H](O)[C@H]2O)n1` [RIBAVIRIN], the results for the Hepatotoxicity result with Hepatotoxicity [1], in the data set on Hepatotoxicity [2] and in the data set on Hepatotoxicity [3] were “drug-induced liver injury reported”, “drug-induced liver injury reported” and “no drug-induced liver injury reported”, respectively.

As to `Cc1cc2nc3c(=O)[nH]c(=O)nc-3n(C[C@H](O)[C@H](O)[C@H](O)CO)c2cc1C` [RIBOFLAVIN], the Hepatotoxicity result in the data set with Hepatotoxicity [1] is given as “drug-induced liver injury reported”; in the data set on Hepatotoxicity [2], “no drug-induced liver injury reported”; with Hepatotoxicity [3], “no drug-induced liver injury reported”.

Regarding `CO[C@H]1/C=C/O[C@@]2(C)Oc3c(C)c(O)c4c(c3C2=O)C2=NC3(CCN(CC(C)C)CC3)NC2=C(NC(=O)/C(C)=C\C=C\[C@H](C)[C@H](O)[C@@H](C)[C@@H](O)[C@@H](C)[C@H](OC(C)=O)[C@@H]1C)C4=O` [RIFABUTIN], the Hepatotoxicity entry in the data set with Hepatotoxicity [1] (Liver) is recorded as “drug-induced liver injury reported”; in the data set with Hepatotoxicity [2] (Liver), “drug-induced liver injury reported”; with Hepatotoxicity [3] (Liver), “no drug-induced liver injury reported”.

In the case of `CO[C@H]1/C=C/O[C@@]2(C)Oc3c(C)c(O)c4c(O)c(c(/C=N/N5CCN(C)CC5)c(O)c4c3C2=O)NC(=O)/C(C)=C\C=C\[C@H](C)[C@H](O)[C@@H](C)[C@@H](O)[C@@H](C)[C@H](OC(C)=O)[C@@H]1C` [RIFAMPIN], the Hepatotoxicity result with Hepatotoxicity [1], with Hepatotoxicity [2] and in the data set on Hepatotoxicity [3] was “drug-induced liver injury reported” each time.

Consider `CO[C@H]1/C=C/O[C@@]2(C)Oc3c(C)c(O)c4c(O)c(cc(O)c4c3C2=O)NC(=O)/C(C)=C\C=C\[C@H](C)[C@H](O)[C@@H](C)[C@@H](O)[C@@H](C)[C@H](OC(C)=O)[C@@H]1C` [RIFAMYCIN], for which the Hepatotoxicity entry in the data set on Hepatotoxicity [1] is listed as “drug-induced liver injury reported”; in the data set with Hepatotoxicity [2] it was “drug-induced liver injury reported”; in the data set with Hepatotoxicity [3] it was “no drug-induced liver injury reported”.

On to `Nc1nc2ccc(OC(F)(F)F)cc2s1` [RILUZOLE], for which the Hepatotoxicity result in the data set on Hepatotoxicity [1] was “drug-induced liver injury reported”; in the data set on Hepatotoxicity [2], “no drug-induced liver injury reported”; in the data set on Hepatotoxicity [3] it was “no drug-induced liver injury reported”.

Turning to `Cc1c(C(=O)NN2CCCCC2)nn(-c2ccc(Cl)cc2Cl)c1-c1ccc(Cl)cc1` [RIMONABANT], the Hepatotoxicity entry in the data set on Hepatotoxicity [1] is on record as “no drug-induced liver injury reported”; in the data set on Hepatotoxicity [2] it was “drug-induced liver injury reported”; in the data set with Hepatotoxicity [3] it was “no drug-induced liver injury reported”.

As to `Cc1nc2n(c(=O)c1CCN1CCC(c3noc4cc(F)ccc34)CC1)CCCC2` [RISPERIDONE], the Hepatotoxicity result in the data set with Hepatotoxicity [1] was “drug-induced liver injury reported”; in the data set on Hepatotoxicity [2] it was “no drug-induced liver injury reported”; in the data set on Hepatotoxicity [3], “no drug-induced liver injury reported”.

Take `CC(NCCc1ccc(O)cc1)C(O)c1ccc(O)cc1.Cl` (stereo not drawn) [RITODRINE HYDROCHLORIDE]: the Hepatotoxicity entry in the data set with Hepatotoxicity [1] is listed as “no drug-induced liver injury reported”; in the data set with Hepatotoxicity [2] it was “no drug-induced liver injury reported”; in the data set with Hepatotoxicity [3], “drug-induced liver injury reported”.

In the case of `CC(C)c1nc(CN(C)C(=O)N[C@H](C(=O)N[C@@H](Cc2ccccc2)C[C@H](O)[C@H](Cc2ccccc2)NC(=O)OCc2cncs2)C(C)C)cs1` [RITONAVIR], the Hepatotoxicity result in the data set with Hepatotoxicity [1] is recorded as “drug-induced liver injury reported”; in the data set on Hepatotoxicity [2], “drug-induced liver injury reported”; in the data set on Hepatotoxicity [3], “no drug-induced liver injury reported”.

Consider `CS(=O)(=O)c1ccc(C2=C(c3ccccc3)C(=O)OC2)cc1` [ROFECOXIB], for which the Hepatotoxicity result is “drug-induced liver injury reported” in the data set on Hepatotoxicity [1], “drug-induced liver injury reported” in the data set on Hepatotoxicity [2] and “no drug-induced liver injury reported” with Hepatotoxicity [3].

As to `CN(C)[C@@H]1C(O)=C(C(=O)NCN2CCCC2)C(=O)[C@@]2(O)C(O)=C3C(=O)c4c(O)cccc4[C@@](C)(O)[C@H]3C[C@@H]12` [ROLITETRACYCLINE], the Hepatotoxicity entry in the data set on Hepatotoxicity [1] is “no drug-induced liver injury reported”; in the data set with Hepatotoxicity [2], “drug-induced liver injury reported”; with Hepatotoxicity [3], “no drug-induced liver injury reported”.

Take `O=C([O-])c1c(Cl)c(Cl)c(Cl)c(Cl)c1-c1c2cc(I)c(=O)c(I)c-2oc2c(I)c([O-])c(I)cc12.[Na+].[Na+]` [ROSE BENGAL SODIUM]: the Hepatotoxicity result with Hepatotoxicity [1] is recorded as “no drug-induced liver injury reported”; in the data set with Hepatotoxicity [2], “drug-induced liver injury reported”; with Hepatotoxicity [3], “no drug-induced liver injury reported”.

These data come from ChEMBL document CHEMBL1697731, “Cheminformatics analysis of assertions mined from literature that describe drug-induced liver injury in different species” (Chem Res Toxicol, 2010).
